Converted amounts (≈) assume the structure as drawn. Like-named read-outs stand apart in the source and are kept apart here.
Columns and labels:
P. aeruginosa A-9843a [1] = experiment: animal or person; assay type: in vivo, mice
Experimental: (§1) The PD50 (dose in mg/kg required to give protection to 50% of the infected mice) is indicated.
with drugs 0 and 2 hours postinfection.
(§2) The PD50 (dose in mg/kg) required to give protection to 50% of the infected mice is indicated.

[2] = Blood levels in mice after intramuscular administration;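 note: compounds dissolved in 0.1 M phosphate buffer at pH 7, data from one experiment using four mice for each compound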
Text: Compounds were solubilized in 0.1 M phosphate buffer pH 7.
a single test; 4 mice used per compound.
Compounds were solubilized in 0.1 M phosphate buffer, pH 7.
on a single test; 4 mice per compound.

S. aureus A-9606 = experiment: Protective effect in intramuscular treatment of infected mice; assay type: in vivo; settings: Staphylococcus aureus, im; mice, i.m.; S. aureus A9606; read-out: PD50/treatment
Experimental: as §1
with drugs 0 and 2 hours postinfection.
as §2

[3] = tested on: S. aureus A15097 (Meth-res.); experiment: M.I.C., tube dilution; assay type: cell-based; settings: Staphylococcus aureus, overnight incubation at 37° C.
E. coli A-15119 = experiment: Protective effect in intramuscular treatment of infected mice; assay type: in vivo; settings: Escherichia coli, im; mice, i.m.; E. coli A15119; read-out: PD50/treatment
Experimental: as §1
with drugs 0 and 2 hours postinfection.
as §2

B. fragilis A22696 = experiment: M.I.C., tube dilution; assay type: cell-based; settings: Bacteroides fragilis, overnight incubation at 37° C., Nutrient Broth
S. faecalis A20688 = experiment: M.I.C., tube dilution; assay type: cell-based; settings: Nutrient Broth
H. influenzae A21518 = experiment: M.I.C., tube dilution; assay type: cell-based; settings: Haemophilus influenzae, overnight incubation at 37° C., Nutrient Broth
H. influenzae A-9833 = experiment: M.I.C., tube dilution; assay type: cell-based; settings: Haemophilus influenzae, A9833; overnight incubation at 37° C., Nutrient Broth
P. vulgaris A21559 = experiment: M.I.C., tube dilution; assay type: cell-based; settings: Nutrient Broth
P. aeruginosa A21213 = experiment: M.I.C., tube dilution; assay type: cell-based; settings: Nutrient Broth
P. mirabilis A-9900 [4] = experiment: Protective effect in intramuscular treatment of infected mice; assay type: in vivo; settings: Proteus mirabilis, im; mice, i.m.; P. mirabilis A9900; read-out: PD50/treatment
Experimental: as §1
with drugs 0 and 2 hours postinfection.
as §2

K. pneumoniae A9664 = experiment: as above; assay type: in vivo; settings: Klebsiella pneumoniae, im, K. pneumoniae A9664, read-out: PD50/treatment
Text: as §2

P. aeruginosa A24081 = experiment: as above; assay type: in vivo; settings: Pseudomonas aeruginosa, im; mice, i.m.; P. aeruginosa A24081; read-out: PD50/treatment
Text: as §2

E. cloacae A-9659 = experiment: M.I.C., tube dilution; assay type: cell-based; settings: overnight incubation at 37° C., Nutrient Broth; listed as Ex. 15 "B"
E. coli A20341-1 = experiment: M.I.C., tube dilution; assay type: cell-based; settings: overnight incubation at 37° C., Nutrient Broth; listed as Ex. 15 "B"
K. pneumoniae A20468 = experiment: M.I.C., tube dilution; assay type: cell-based; settings: overnight incubation at 37° C., Nutrient Broth; listed as Ex. 15 "B"
P. aeruginosa A-9843A [5] = experiment: M.I.C., tube dilution; assay type: cell-based; settings: overnight incubation at 37° C., Nutrient Broth; listed as Ex. 15 "B"
S. pneumoniae A-9585 = experiment: M.I.C., tube dilution; assay type: cell-based; settings: overnight incubation at 37° C., Nutrient Broth
S. aureus A-9537 = experiment: M.I.C., tube dilution; assay type: cell-based; settings: listed as Ex. 15 "B"
P. morganii A15153 = experiment: M.I.C., tube dilution; assay type: cell-based; settings: printed M. morganii A15153; overnight incubation at 37° C.; listed as Ex. 15 "B"
S. marcescens A20019 = experiment: M.I.C., tube dilution; assay type: cell-based; settings: overnight incubation at 37° C., Nutrient Broth; listed as Ex. 15 "B"
S. pyogenes A-9604 = experiment: M.I.C., tube dilution; assay type: cell-based; settings: overnight incubation at 37° C., Nutrient Broth; listed as Ex. 15 "B"
P. mirabilis A-9900 [6] = experiment: M.I.C., tube dilution; assay type: cell-based; settings: overnight incubation at 37° C., Nutrient Broth
E. coli A15119 = experiment: M.I.C., tube dilution; assay type: cell-based; settings: overnight incubation at 37° C., Nutrient Broth; listed as Ex. 15 "B"
E. cloacae A-9656 = experiment: M.I.C., tube dilution; assay type: cell-based; settings: overnight incubation at 37° C., Nutrient Broth
K. pneumoniae A-9664 = experiment: M.I.C., tube dilution; assay type: cell-based; settings: overnight incubation at 37° C., Nutrient Broth
P. rettgeri A22424 = experiment: M.I.C., tube dilution; assay type: cell-based; settings: overnight incubation at 37° C., Nutrient Broth; listed as Ex. 15 "B"
[7] = tested on: S. aureus A-9606 (Pen-res.); experiment: M.I.C., tube dilution; assay type: cell-based; settings: overnight incubation at 37° C., listed as Ex. 15 "B"
[8] = mice, 20 mg/kg i.m. (table 9), 20 mg/kg
[9] = overnight incubation at 37° C., listed as Ex. 15 "B"

C[C@@H](O)[C@H]1C(=O)N2C(C(=O)[O-])=C(SCc3ccc[n+](C)c3)C[C@H]12 [Example 3, 3-(N-Methylpyridine-3-yl-methanethio)-6α-[1-(R)-hydroxyethyl]-7-oxo-1-azabicyclo(3.2.0)hept-2-ene-2-carboxylate]
ED50 (P. aeruginosa A-9843a [1]; Pseudomonas aeruginosa, A9843A, in Mus musculus, im, read-out: PD50/treatment): 0.5 mg/kg | AUC ([2]; mouse, blood, im, 20 mg/kg): 6900 ng·h/mL | Cmax ([2]; mouse, blood, im, 20 mg/kg): 14500 ng/mL | half-life ([2]; mouse, blood, im, 20 mg/kg): 10 min | ED50 (S. aureus A-9606): 0.07 mg/kg | MIC [3]: 4 µg/mL (≈ 12 µM) | ED50 (E. coli A-15119): 1 mg/kg | MIC (B. fragilis A22696): 0.5 µg/mL (≈ 1.5 µM) | MIC (S. faecalis A20688; Enterococcus faecalis, A20688, overnight incubation at 37° C., read-out: MIC): 0.5 µg/mL (≈ 1.5 µM) | MIC (H. influenzae A21518): 2 µg/mL (≈ 5.98 µM) | MIC (H. influenzae A-9833): 2 µg/mL (≈ 5.98 µM) | MIC (P. vulgaris A21559; Proteus vulgaris, A21559, overnight incubation at 37° C., read-out: MIC): 0.016 µg/mL (≈ 0.0478 µM) | MIC (P. aeruginosa A21213; Pseudomonas aeruginosa, A21213, overnight incubation at 37° C., read-out: MIC): 0.5 µg/mL (≈ 1.5 µM) | ED50 (P. mirabilis A-9900 [4]): 2 mg/kg | ED50 (K. pneumoniae A9664): 3 mg/kg | ED50 (P. aeruginosa A24081): 0.8 mg/kg

C[C@@H](O)C1C(=O)N2C(C(=O)[O-])=C(SCc3cn(C)n[n+]3C)CC12 (stereo partly drawn) [Example 15 "B", 3-[4-(N,N-dimethyl-1,2,3-triazolium)methylthio]-6α-[1-(R)-hydroxyethyl]-7-oxo-1-azabicyclo(3.2.0)hept-2-ene-2-carboxylate]
MIC (E. cloacae A-9659): 0.016 µg/mL (≈ 0.0473 µM) | PD50/treatment (P. aeruginosa A-9843a [1]; mice, i.m., P. aeruginosa A9843A): 0.89 mg/kg | T1/2 ([2]; mice, 20 mg/kg i.m. (table 9)): 10 min | AUC [2, 8]: 7400 ng·h/mL | Cmax [2, 8]: 15900 ng/mL | MIC (E. coli A20341-1): 0.008 µg/mL (≈ 0.0236 µM) | MIC (K. pneumoniae A20468): 0.016 µg/mL (≈ 0.0473 µM) | MIC (P. aeruginosa A-9843A [5]): 2 µg/mL (≈ 5.91 µM) | MIC (S. pneumoniae A-9585): 0.0005 µg/mL (≈ 0.00148 µM) | MIC (S. aureus A-9537; +50% serum): 0.016 µg/mL (≈ 0.0473 µM) | MIC (S. aureus A-9537; overnight incubation at 37° C., Nutrient Broth): 0.004 µg/mL (≈ 0.0118 µM) | MIC (S. faecalis A20688; overnight incubation at 37° C.): 0.5 µg/mL (≈ 1.48 µM) | MIC (P. morganii A15153): 0.06 µg/mL (≈ 0.177 µM) | MIC (S. marcescens A20019): 0.016 µg/mL (≈ 0.0473 µM) | MIC (S. pyogenes A-9604): 0.001 µg/mL (≈ 0.00296 µM) | MIC (P. mirabilis A-9900 [6]): 0.03 µg/mL (≈ 0.0887 µM) | MIC (E. coli A15119): 0.008 µg/mL (≈ 0.0236 µM) | MIC (E. cloacae A-9656): 0.03 µg/mL (≈ 0.0887 µM) | MIC (P. vulgaris A21559; [9]): 0.008 µg/mL (≈ 0.0236 µM) | MIC (K. pneumoniae A-9664): 0.03 µg/mL (≈ 0.0887 µM) | MIC (P. aeruginosa A21213; [9]): 0.13 µg/mL (≈ 0.384 µM) | MIC (P. rettgeri A22424): 0.13 µg/mL (≈ 0.384 µM) | MIC [7]: 0.008 µg/mL (≈ 0.0236 µM)

From patent publication US4732977A, “Carbapenem antibiotics” (priority 1986, dated 1988)
